Experimental data from a melting point compilation (Tetko et al.; mined from patent text by program, amines drawn as free bases though some values may be those of a salt).

| SMILES | melting point |
| --- | --- |
| Cc1cc(-c2cnn3c(C(F)(F)F)cc(-c4ccc(Cl)cc4)nc23)ccn1 | 220 °C |
| O=C(NCC1(c2ccccc2)CCCC1)Nc1ccc(F)cc1F | 160 to 161 °C |
| COc1cc(N2CCCCC2)ccc1C(=O)c1ccccc1C(=O)O | 199 to 201 °C |
| NC(=O)NC(=O)C(Cl)(Cl)CC1(c2cc(Cl)cc(Cl)c2)CO1 (centres undefined) | 186 to 189 °C |
| CCOc1ccc2c(c1)C(C)(c1ccccc1Cl)C(=O)N2S(=O)(=O)c1ccc(N)cc1OC (centres undefined) | 211 °C |
| CN(C)CCc1cccc(N2C(=O)N(c3c(Cl)cccc3Cl)Cc3cnc(Nc4ccccc4)nc32)c1 | 101 to 105 °C |
| CCOC(=O)c1ccccc1Nc1ccccc1O | 105 to 106 °C |
| CCCCCCCCCCOCCCN=C=O | 78 to 82 °C |
| O=c1c2ccc(OCC3CO3)cc2oc2ccc3cccc(O)c3c12 (centres undefined) | 191 to 193 °C |
| CC1CCN(c2ccc([N+](=O)[O-])cc2C(=O)c2ccc(Cl)cc2)CC1 | 136 °C |
| CC(C)Nc1nc(-n2cc(C(=O)O)c(=O)c3cc(F)c(F)c(Cl)c32)c(F)cc1F | 226 to 230 °C |
| CC(c1oc2ccccc2c(=O)c1-c1cccc(F)c1)n1nc(-c2cccc3c2oc2ccccc23)c2c(N)ncnc21 (centres undefined) | 238 to 240 °C |
| CN(C)CCN(C)C(=O)Cc1ccc(NC(=O)OCc2ccccc2)cc1 | 109 to 110 °C |
| CC1CC(N)=NN1c1ccccc1 (centres undefined) | 104 to 106 °C |
| COc1cc(C)c(C(=O)c2c(Cl)cnc(Cl)c2C(F)(F)F)c(OC)c1OC | 106 to 109 °C |
| O=C(O)c1cc(-c2ccccc2F)ns1 | 191 to 192 °C |
| NCc1cccc(CNc2ncc3ncnc(Nc4ccc(F)c(Cl)c4)c3n2)c1 | 179 to 182 °C |
| O=C1N2CCc3ccsc3C23SC1(c1ccccc1)CC3[N+](=O)[O-] (centres undefined) | 192 to 196 °C |
| CN1CCN(c2nc(-c3ccccc3)nc3nc(-c4ccncc4)[nH]c23)CC1 | 333 to 337 °C |
| O=C1N(c2ccc(Br)cc2)C(Cl)(Cl)C2CCCCC12Cl (centres undefined) | 148 to 150 °C |
| c1cc2ncc3c(n2n1)N(C1CCCC1)CC3 | 181 °C |
| CC(C)(C)OC(=O)CN(C(=O)CN(C(=O)CN1C(=O)c2ccccc2C1=O)c1ccccc1)c1ccccc1 | 80 °C |
| COc1cc(I)c(I)cc1OC | 134 to 136 °C |
| NC(=O)c1c(Cl)c(-c2ccccc2)n2c1CN(S(=O)(=O)c1cccs1)CC2 | 240 to 242 °C |
| CC(C)(C)c1cc(-c2ccccc2)c(Oc2cccc(C#N)c2C#N)c(-c2ccccc2)c1 | 189 to 192 °C |

| SMILES | melting point |
| --- | --- |
| CC1=N/C(=C\c2c[nH]c3ncccc23)C(=O)N1CCN1CCOCC1 | 235 to 240 °C |
| BrCCCCCCC1(CCCCCCBr)c2cc(Br)ccc2-c2ccc(Br)cc21 | 68 °C |
| Cc1cccc2cc(C(=O)Cn3ccnc3)ccc12 | 264 °C |
| O=c1ccc(-c2c(-c3ccccc3)nn3ccccc23)nn1C1CCNCC1 | 115 to 117 °C |
| COc1ccc(/C=C/C(=O)Nc2ccc(Br)cc2C(=O)O)cc1OC | 210 to 213 °C |
| Cc1ccc(-c2c(-c3ccc(S(C)(=O)=O)cc3)cnn(-c3ccc(F)cc3)c2=O)cc1 | 242 to 244 °C |
| COCCNc1cc(Cl)cc(NCCOC)c1[N+](=O)[O-] | 90 °C |
| Cc1c(O)ccc2c(=O)c(-c3ccc4c(c3)OCO4)coc12 | 270 to 272 °C |
| CCCc1nn(C)c(C(N)=O)c1N | 96 to 98 °C |
| O=C(O)CC(=O)N1CCSCC1 | 119 to 120 °C |
| COC(=O)c1c([N+](=O)[O-])cccc1[N+](=O)[O-] | 150 to 152 °C |
| COC1=C(OC)C(=O)C2=C(CCC(CCn3c(=O)ccc4ccccc43)CC2)C1=O | 88 to 90 °C |
| CCN(CC)c1ccc2c(c1)Oc1cc(N(Cc3ccccc3)C(C)=O)c3ccccc3c1N2C(C)=O | 202 to 204 °C |
| COc1ccc(C(NCC(C)c2ccccc2)c2cccc(Nc3c(N)c(=O)c3=O)c2)cc1 (centres undefined) | 192 to 194 °C |
| O=S(=O)(/C=C/c1ccc(Cl)cc1)Nc1ccccc1Cl | 107 to 109 °C |
| CCSc1ccc(C(=O)NCc2ccc3c(c2)C(=O)N(C2(C)CCC(=O)NC2=O)C3=O)nn1 (centres undefined) | 160 to 162 °C |
| Cc1ccc(S(=O)(=O)OCCC2(C)OCCc3nc(-c4ccccc4)sc32)cc1 (centres undefined) | 86 to 87 °C |
| O=C(O)CCCOc1ccc(C2=CCCCCC2)cc1 | 87 to 88 °C |
| O=C(NC1CCc2c[nH]cc2C1)[C@@H]1CCCN1C(=O)[C@@H](CC1CCCCC1)NS(=O)(=O)Cc1ccccc1 (some centres undefined) | 106 to 109 °C |
| N#CCC(=O)N[C@H]1CC[C@H](CCN2CCN(c3nccc4c3CCO4)CC2)CC1 | 188 °C |
| Cc1[nH]c2ccc(CCOS(C)(=O)=O)cc2c1C(=O)OCc1ccccc1 | 122 to 124 °C |
| NN=C(c1ccccc1)c1cc(Cl)ccc1N | 133 to 134 °C |
| CCCCCCCCCCCCCCCCNC(=O)NCCCN(C)C | 78 to 79 °C |
| Cc1ccc(-c2nn(-c3cccc4ccccc34)c(N)c2C(N)=O)cc1 | 195 °C |
| C=CCCCS(=O)(=O)CCCC(=O)O | 104 to 107 °C |

| SMILES | melting point |
| --- | --- |
| N#Cc1cc(C(=O)CBr)ccc1N | 162 to 165 °C |
| FC(F)(F)c1ccc(CC(=Nc2ccccc2)NC(=S)NCc2cccnc2)cc1 | 165 to 166 °C |
| O=[N+]([O-])c1ccc2c(c1)NCc1ccccc1O2 | 154 to 156 °C |
| CC(C)CCN1C(=O)C(NC(=O)Oc2cccc(N(C)C)c2)C(=O)N(c2ccccc2F)c2ccccc21 (centres undefined) | 193 to 194 °C |
| C=C(C)c1cccc2c1nc(-c1c(F)cccc1F)n2Cc1c(F)cccc1F | 156 to 158 °C |
| O=C(NCc1ccccc1)Nc1cc(CNc2ccccc2C(=O)Nc2cccc(C(F)(F)F)c2)ccn1 | 153 °C |
| CN1CCC(c2cc3c(F)cccc3c(=O)[nH]2)CC1 | 220 to 222 °C |
| Cc1cc(OC(=O)c2ccccc2)ccc1O | 120 to 122 °C |
| c1ccc(-c2coc3c2ccc2ccccc23)cc1 | 98 to 109 °C |
| O=C1c2ccccc2C(=O)c2c(O)c(S(=O)(=O)c3ccccc3)cc(O)c21 | 258 to 260 °C |
| O=c1cc(CN2CCOCC2)oc(-c2ccc(O)cc2)c1 | 162 to 164 °C |
| O=[N+]([O-])c1ccc2nc(Cl)nc(-c3ccccc3Cl)c2c1 | 228 °C |
| Cc1c(-c2ccccc2)nn2c1-c1ccccc1CC2 | 122 to 124 °C |
| COCCO[C@@H]1c2ccn3c(CO)c(C)nc3c2N[C@H](c2ccccc2)[C@H]1O | 180 to 183 °C |
| COc1ccc(CN2C(=O)[C@@H](NC(=O)Cc3ccccc3)[C@H]2CN=[N+]=[N-])c(OC)c1 (relative stereo) | 110 to 111 °C |
| CCCN1CCC(Cc2ccc3c(c2)c(Cc2ccc(C(=O)NS(=O)(=O)c4ccccc4C)cc2OC)cn3CCC)C1=O (centres undefined) | 98 to 115 °C |
| O=c1[nH]c2cc(C(F)(F)F)ccc2n1-c1cc(Cl)cc(Br)c1O | 254 to 255 °C |
| c1ccc(N=C2CCCc3ccccc32)cc1 | 53 °C |
| Cc1ccc(-c2cc3cc(Cl)c(Cl)cc3o2)cc1 | 129 to 130 °C |
| O=[N+]([O-])c1ccc(Oc2c(Cl)cc(S(=O)(=O)NC(=NO)Nc3ccc(Cl)cc3)cc2Cl)cc1 | 212 °C |
| CCOC(=O)CNc1ccc(OCc2ccccc2)cc1 | 70 °C |
| FC(F)(F)c1c(CNC2Cc3ccccc3C2)ccn2c(CC3CC3)nnc12 | > 300 °C |
| CN1CC(=O)N(c2cccnc2)C1=S | 149 to 151 °C |
| CN(C)/C=C/C(=O)c1ccc2n1Cc1ccccc1N(C(=O)c1ccc(C3CCCCC3)cc1)C2 | 237 to 240 °C |
| NN(Cc1nccs1)C1CCCN(C(=O)c2ccc(Nc3nccc(Nc4ccc(F)cc4)n3)cc2)C1 (centres undefined) | 160 to 165 °C |

| SMILES | melting point |
| --- | --- |
| COc1ccc(-c2nc3cc(OC)cc(C#N)c3o2)cc1 | 180 to 183 °C |
| CNC(=O)/C(=N/OC)c1ccccc1COc1ncc(Cl)cc1C(F)(F)F | 105 to 106 °C |
| Cc1cccc2sc(-n3nc(CCC(=O)N(C)O)cc3-c3ccc(Cl)cc3)nc12 | 156 to 158 °C |
| CCn1ncc2c(NCC3CCCCC3)c3ccccc3nc21 | 161 to 163 °C |
| CN1CCN([C@H]2CC[C@@H](N)CC2)C1=O | 81 to 87 °C |
| COC1(C(=O)Nc2ccc(OC(C)C)c(Cl)c2)CC1 | 86 to 87 °C |
| O=C(Nc1nc(CN2CCC(c3c[nH]c4ccccc34)CC2)cs1)C(F)(F)F | 244 to 247 °C |
| NC(=O)NCc1ccc(Nc2n[nH]c3ncnc(Nc4cccc(Cl)c4)c23)cc1 | > 280 °C |
| CC(C)(C)OC(=O)Nc1nc2cc(NC(=O)C(=O)N3CCC(Cc4ccccc4)CC3)ccc2[nH]1 | 192 °C |
| COc1cccc(-c2cc(Cl)c3cc(OC)ccc3n2)c1 | 106 to 107 °C |
| NC1=C(NC=O)C(=O)N2CCN=C2N1Cc1ccccc1 | 248 to 250 °C |
| COc1ccc(CCCC(=O)Nc2ncc([N+](=O)[O-])s2)cc1 | 176 to 177 °C |
| CC1(C)c2ccc([N+](=O)[O-])cc2[C@@H](NC(=O)NCc2ccccc2)[C@@H]1O (relative stereo) | 202 to 204 °C |
| CCOC(=O)c1cn(C)c2cnc3cc(N4CCCC4)c(F)cc3c2c1=O | 270 °C |
| OCc1c[nH]c(=S)n1[C@H]1CCc2cc(Cl)c(Cl)cc2C1 | 247 to 248 °C |
| CCCCCCCCCCC[C@H](CC(=O)N[C@@H](CO)C(=O)OCc1ccccc1)OC(=O)CCCCCCC | 50 to 51 °C |
| CS(=O)CCCn1c(=N)sc2cc(OC(F)(F)F)ccc21 (racemic) | 114 °C |
| CCOC(=O)C(CC)Oc1ccccc1C(C)=O (centres undefined) | 43 to 45 °C |
| Cc1nc2scc(-c3ccccc3)n2c(=O)c1CCN1CCC(c2noc3cc(F)ccc23)CC1 | 76 to 91 °C |
| O=C(O)C1(c2cccc(C(F)(F)F)c2)CCN(Cc2ccccc2)CC1 | 243 °C |
| O=[N+]([O-])c1cc(O)c(F)cc1F | 117 to 119 °C |
| CC(C)c1nc(CNS(C)(=O)=O)n(C)c1Sc1cc(Cl)cc(Cl)c1 | 116 to 118 °C |
| COC(=O)c1cnoc1-c1ccc(Cl)cc1Cl | 83 to 84 °C |
| CCOC(=O)c1cnc2c(OC)cccc2c1Nc1ccc(O)cc1C | 277 to 279 °C |
